Laboratory results from paper PMC10258805, “Nonpeptidic Oxazole-Based Prolyl Oligopeptidase Ligands with Disease-Modifying Effects on α-Synuclein Mouse Models of Parkinson’s Disease” (Journal of Medicinal Chemistry, 2023).
“Also recorded” adds a separate entry of the source.

Experiments:
LC3BII in mouse brain = LC3BII in mouse brain (Western blot); format: in vivo; settings: 10 mg/kg i.p., 45 min after injection
SH-SY5Y cells = assay: Cell viability (MTT) in SH-SY5Y cells; format: cell-based, human; settings: up to 100 μM, 24 h
Procedure: Toxicity testing of selected compounds
The impact of compounds on cell viability was assayed at the end of incubation period using a standard MTT assays as described earlier in Svarcbahs et al.11 and Myöhänen et al.12 HEK-293 and SH-SY5Y cells and mouse primary neurons were seeded onto 96-well plates (10,000 cells/well) and incubated overnight. Thereafter, the cells were incubated with 1, 10, and 100 µM of study compounds for 24 h (HEK-293 and SH-SY5Y cells) or 48 h (mouse primary neurons), followed by the measurement of mitochondrial […]
Figure S68. Selected oxazoles were tested for cell viability in an MTT assay after 24 h treatment in (A) HEK-293 cells and (B) SH-SY5Y cells and 48 h treatment in (C) mouse primary neurons. Even with the high […]
Data are presented as mean + […]
LC-MS detection of HUP-55 metabolites in the mouse brain
The same column and gradient was used with UPLC-HDMS analysis of the metabolites of HUP-55, as for the analysis of HUP-55 detailed in the experimental section of the article. The analyses were performed with ESI (+) resolution mode and the exact masses were analysed with UPLC-Synapt G2 QTOF/MS (Waters). The […]
Compound Retention time (min) m/z (M+H)+ Empirical formula

PREP in HEK-293 cells = molecular target: T1, PREP in HEK-293 cells (Homo sapiens, UniProt P48147); assay: Cellular thermal shift assay (CETSA); format: cell-based; settings: 10 μM, 1 h
T1 construct: endogenous in cells; host or cells: HEK-293 (ATCC)
T1 sequence (P48147 1-710): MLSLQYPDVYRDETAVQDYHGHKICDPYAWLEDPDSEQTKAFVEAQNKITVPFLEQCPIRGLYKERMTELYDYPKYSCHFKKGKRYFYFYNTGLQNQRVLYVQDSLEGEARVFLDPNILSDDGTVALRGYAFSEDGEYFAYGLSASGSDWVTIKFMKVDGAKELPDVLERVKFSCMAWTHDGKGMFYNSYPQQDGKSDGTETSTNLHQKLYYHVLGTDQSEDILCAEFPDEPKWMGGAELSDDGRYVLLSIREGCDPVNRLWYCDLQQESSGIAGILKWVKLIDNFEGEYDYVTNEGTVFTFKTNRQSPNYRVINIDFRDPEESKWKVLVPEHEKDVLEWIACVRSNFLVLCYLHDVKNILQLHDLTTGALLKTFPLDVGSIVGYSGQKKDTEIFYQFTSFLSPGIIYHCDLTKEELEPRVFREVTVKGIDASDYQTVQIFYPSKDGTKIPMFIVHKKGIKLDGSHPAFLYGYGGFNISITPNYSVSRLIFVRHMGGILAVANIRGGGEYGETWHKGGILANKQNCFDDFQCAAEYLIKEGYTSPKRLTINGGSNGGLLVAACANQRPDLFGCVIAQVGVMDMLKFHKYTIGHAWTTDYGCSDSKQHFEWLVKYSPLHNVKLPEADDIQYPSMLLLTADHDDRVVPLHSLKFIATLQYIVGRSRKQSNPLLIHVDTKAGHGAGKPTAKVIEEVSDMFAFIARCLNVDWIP
Procedure: CETSA was performed as previously described.[41] HEK-293 cells were seeded to T25 flasks with a density of 1 × 10^6 cells. […] After the exposure, the cells were collected in PBS and aliquoted into 7 PCR tubes (100,000 cells/tube). The cells were prewarmed at 37 °C for 3 min, then heated to 37, 47, 50, 53, 56, 63, or 67 °C for 3 min and subsequently cooled at 25 °C for 3 min using a PCR Mastercycler (T100 Thermal Cycler, Bio-Rad). After heating, the cells were disrupted with two freeze–thaw cycles by submerging the tubes into liquid nitrogen and subsequently thawed by incubation at 25 °C for 3 min. The aggregated proteins were removed by centrifugation (at 20,000g for 20 min at 4 °C), and the soluble fractions were diluted with Laemmli buffer (Bio-Rad, Hercules, CA) and analyzed with Western blot as described above. The nondenaturated protein fractions (%) were calculated by comparing the intensities of temperature-treated cell samples to the corresponding cell samples from 37 °C.

LC3BII in HEK-293 cells = assay: Autophagy marker LC3BII assay (Western blot); format: cell-based, human; settings: HEK-293, 10 μM
human FAP = molecular target: T2, human FAP (Homo sapiens, UniProt Q12884); assay: Close-relative enzyme specificity assay, FAP; format: biochemical; settings: 1 or 10 μM
T2 construct: the human secretion signal was replaced with the HoneyBee melittin secretion signal; HoneyBee melittin secretion signal (N); His tag from the C-terminal BaculoDirect vector (inferred from Ni-chelating purification; the vector also adds V5, own knowledge) (C); made in house; host or cells: Sf9 insect cells
T2 sequence (Q12884 26-760 limits assumed): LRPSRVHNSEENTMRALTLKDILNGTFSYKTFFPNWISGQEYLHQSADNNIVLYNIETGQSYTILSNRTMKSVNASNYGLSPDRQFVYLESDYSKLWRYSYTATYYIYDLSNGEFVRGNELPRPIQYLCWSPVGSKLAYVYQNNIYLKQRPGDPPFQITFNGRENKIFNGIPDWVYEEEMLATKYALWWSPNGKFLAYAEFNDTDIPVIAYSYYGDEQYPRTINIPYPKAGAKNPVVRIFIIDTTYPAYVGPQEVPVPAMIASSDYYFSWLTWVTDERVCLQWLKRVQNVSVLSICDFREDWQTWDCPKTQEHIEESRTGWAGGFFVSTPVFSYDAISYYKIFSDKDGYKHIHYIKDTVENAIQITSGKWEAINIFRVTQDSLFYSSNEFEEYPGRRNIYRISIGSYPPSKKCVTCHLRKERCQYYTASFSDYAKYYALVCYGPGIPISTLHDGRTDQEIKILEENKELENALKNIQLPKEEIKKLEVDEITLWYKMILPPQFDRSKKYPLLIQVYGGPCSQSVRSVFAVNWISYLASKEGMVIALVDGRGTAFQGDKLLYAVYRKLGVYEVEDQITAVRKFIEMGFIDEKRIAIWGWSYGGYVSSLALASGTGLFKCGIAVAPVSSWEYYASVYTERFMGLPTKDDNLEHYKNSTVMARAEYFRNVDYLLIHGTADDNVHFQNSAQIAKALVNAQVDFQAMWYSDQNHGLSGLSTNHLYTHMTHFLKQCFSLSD
Description: FAP: A gateway-entry clone for human FAP was purchased from Dharmacon (Accession number DQ891423), and the human secretion signal was replaced with the HoneyBee melittin secretion signal. For transfection and expression of FAP in Sf9 insect cells, the C-terminal BaculoDirect kit from LifeTechnologies was used. The enzyme was purified from the supernatant of the insect cells using immobilized Ni-chelating chromatography (GE Healthcare, Diegem, Belgium), followed by anion-exchange chromatography using a 1 mL HiTrap Q and size exclusion chromatography using the Superdex 200 column (GE Healthcare, Diegem, Belgium).
Measurements were done on the Infinite 200 as above.

## Cc1nc(CCCc2ccccc2)oc1N1CCC[C@H]1C#N [HUP-55, (S)-1-(4-Methyl-2-(3-phenylpropyl)oxazol-5-yl)pyrrolidine-2-carbonitrile]
LC3BII in mouse brain
  levels of LC3BII in mouse brain (in words): significantly elevated
SH-SY5Y cells
  toxicity (cell viability): None of the compounds caused any toxicity
PREP in HEK-293 cells
  fitted mean aggregation temperature: 53.19 °C
PREP in HEK-293 cells; vs DMSO
  increase in the fitted mean aggregation temperature: 3.01 °C
LC3BII in HEK-293 cells; 4 h
  LC3BII levels (in words): significant increase in LC3BII levels
LC3BII in HEK-293 cells; 24 h
  LC3BII levels (in words): significantly elevated LC3BII levels
Human FAP
  inhibition of FAP: no inhibition; also recorded: does not inhibit
